Measurements reported in US9296774B2, “Halogenated dideoxy sugar derivates, preparation method and application thereof” (Suzhou Harmony Biotechnology Co., Ltd., priority 2009, dated 2016).
Entries after “also recorded” stand apart in the source; their conditions may differ.

Tests used:
[1] = tested on: mouse; assay: Acute toxicity (LD50), mouse ig
[2] = tested on: mouse; assay: Acute toxicity (LD50), mouse ip injection; conditions: mouse ip after injection
[3] = in vivo; conditions: mouse, po
[4] = in vivo; conditions: mouse, ip
[5] = tested on: MX-1 human breast cancer cells; assay: Mouse transplant tumor, MX-1 human breast cancer; conditions: for inhibitive effect on mouse transplant tumor (in words): 125 mg/kg; for Inhibition of tumor growth / Weight of tumor / weight end / weight start: 125 mg/kg once a day for 7 days; for weight end: animal weight at end; for weight start: animal weight at start;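 as to all read-outs here: mice given saline served as the control group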
Description: (§1) Saline solution was used as a control. The positive group CTX was treated with the compounds at an amount of 0.4 ml/20 g. The compounds were applied once a day for consecutive 7 days.

[6] = tested on: anaplastic thyroid carcinoma TA-K cells; assay: Mouse transplant tumor, human anaplastic thyroid carcinoma TA-K; conditions: for inhibitive effect on mouse transplant tumor (in words): anaplastic thyroid carcinoma TA-K, 125 mg/kg; for Inhibition of tumor growth / Weight of tumor / weight end / weight start: human anaplastic thyroid carcinoma TA-K, 125 mg/kg once a day for 7 days; for weight end: animal weight at end; for weight start: animal weight at start;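 as to all read-outs here: Tumor-bearing mice compared against a saline-treated control group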
Description: as §1

[7] = tested on: 05-732 human bone tumor; assay: Mouse transplant tumor, 05-732 human osteosarcoma; conditions: for inhibitive effect on mouse transplant tumor (in words): 05-732 human bone tumor, 125 mg/kg; for Inhibtion of tumor growth / Weight of tumor / weight end / weight start: 05-732 human osteosarcoma, 125 mg/kg once a day for 7 days; for weight end: animal weight at end; for weight start: animal weight at start
Description: as §1

[8] = tested on: B16 malignant melanoma; assay: Mouse transplant tumor, B16 malignant melanoma; conditions: for inhibitive effect on mouse transplant tumor (in words): B16 malignant melanoma, 125 mg/kg; for Inhibition of tumor growth (%) / Weight of tumor / weight end / weight start: B16, 125 mg/kg once a day for 7 days; for weight end: body weight at end; for weight start: body weight at start
Description: as §1

[9] = tested on: MGC human stomach cancer cells; assay: Mouse transplant tumor, MGC human stomach cancer; conditions: for inhibitive effect on mouse transplant tumor (in words): 125 mg/kg; for Inhibition of tumor growth / Weight of tumor / weight end / weight start: 125 mg/kg once a day for 7 days; for weight end: animal weight at end; for weight start: animal weight at start;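 as to all read-outs here: control group received saline vehicle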
Description: Saline solution was used as a control. The positive group CTX was treated with the compounds at an amount of 0.4 ml/20 g. The compounds were applied once a day for consecutive 7 days. The animals were then compensated.

[10] = tested on: AsPc human pancreatic cancer cells; assay: Mouse transplant tumor, AsPc human pancreatic cancer; conditions: for inhibitive effect on mouse transplant tumor (in words): 125 mg/kg; for Inhibition of tumor growth / Weight of tumor / weight end / weight start: 125 mg/kg once a day for 7 days; for weight end: animal weight at end; for weight start: animal weight at start;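 as to all read-outs here: Saline-treated mice served as the control group, with a CTX-treated group as positive reference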
Description: as §1

Structure (SMILES)	LD50 [3] [mg/kg]	LD50 [4] [mg/kg]	inhibitive effect on mouse transplant tumor (in words) [5]	inhibitive effect on mouse transplant tumor (in words) [6]	inhibitive effect on mouse transplant tumor (in words) [7]	inhibitive effect on mouse transplant tumor (in words) [8]	inhibitive effect on mouse transplant tumor (in words) [9]	inhibitive effect on mouse transplant tumor (in words) [10]	Inhibition of tumor growth [5]	Weight of tumor [5]	Inhibition of tumor growth [6]	Weight of tumor [6]	Inhibtion of tumor growth [7]	Weight of tumor [7]	Inhibition of tumor growth (%) [8] [%]	Weight of tumor [8]	Inhibition of tumor growth [9]	Weight of tumor [9]	Inhibition of tumor growth [10]	Weight of tumor [10]	other results
CC(=O)OCC1OC(OP(=O)(NCCCl)NCCCl)C(Br)CC1OC(C)=O (single isomer, unassigned) [Compound 8]																					LD50 [1]: 2017.5 mg/kg; LD50 [2]: 301.4 mg/kg
CC(=O)OCC1OC(Br)C(Br)CC1OC(C)=O (single isomer, unassigned) [Compound 4]																					LD50 [1]: 2389.2 mg/kg; LD50 [2]: 356.2 mg/kg
CC(=O)OCC1OC(OP(=O)(O)N(CCCl)CCCl)C(Br)CC1OC(C)=O (centres unmarked) [Compound 11]	2030	323																			
COc1cc(C2c3cc4c(cc3C(C3CC(Br)C(OC(C)=O)C(COC(C)=O)O3)C3COC(=O)C23)OCO4)cc(OC)c1O (centres unmarked) [Compound 13]	1830	299	good inhibitive effect	good inhibitive effect	good inhibitive effect	good inhibitive effect	good inhibitive effect	good inhibitive effect													
CC(=O)OCC1OC(Br)C(Br)CC1OC(C)=O (single isomer, unassigned) [Compound 3]	2320	359	good inhibitive effect; also recorded: significant effect	good inhibitive effect; also recorded: significant effect	good inhibitive effect; also recorded: significant effect	good inhibitive effect; also recorded: significant effect	good inhibitive effect; also recorded: significant effect	good inhibitive effect; also recorded: significant effect	75.8	0.6	73.2	0.7	71.5	0.8	76.8	0.6	72.5	0.7	77.3	0.5	weight end [5]: 18.3; weight start [5]: 18.2; weight end [6]: 18.3; weight start [6]: 18.2; weight end [7]: 18.3; weight start [7]: 18.2; weight end [8]: 18.3; weight start [8]: 18.2; weight end [9]: 18.3; weight start [9]: 18.2; weight end [10]: 18.3; weight start [10]: 18.2
CC(=O)OCC1OC(OP(=O)(NCCCl)NCCCl)C(Br)CC1OC(C)=O (single isomer, unassigned) [Compound 7]	2220	316	good inhibitive effect; also recorded: significant effect	good inhibitive effect; also recorded: significant effect	good inhibitive effect; also recorded: significant effect	good inhibitive effect; also recorded: significant effect	good inhibitive effect; also recorded: significant effect	good inhibitive effect; also recorded: significant effect	80.8	0.5	84.2	0.4	81.3	0.5	80.4	0.5	83.8	0.4	73.6	0.6	weight end [5]: 18.4; weight start [5]: 18.3; weight end [6]: 18.4; weight start [6]: 18.3; weight end [7]: 18.4; weight start [7]: 18.3; weight end [8]: 18.4; weight start [8]: 18.3; weight end [9]: 18.4; weight start [9]: 18.3; weight end [10]: 18.4; weight start [10]: 18.3
CC(=O)OCC1OC(OP(=O)(NCCCl)NCCCl)CC(Br)C1OC(C)=O (single isomer, unassigned) [Compound 5]	2120	301	good inhibitive effect; also recorded: significant effect	good inhibitive effect; also recorded: significant effect	good inhibitive effect; also recorded: significant effect	good inhibitive effect; also recorded: significant effect	good inhibitive effect; also recorded: significant effect	good inhibitive effect; also recorded: significant effect	83.6	0.4	76.6	0.6	74.9	0.7	76.4	0.6	75.7	0.6	81.5	0.4	weight end [5]: 18.6; weight start [5]: 18.3; weight end [6]: 18.6; weight start [6]: 18.3; weight end [7]: 18.6; weight start [7]: 18.3; weight end [8]: 18.6; weight start [8]: 18.3; weight end [9]: 18.6; weight start [9]: 18.3; weight end [10]: 18.6; weight start [10]: 18.3
CC(=O)OCC1OC(OP(=O)(NCCCl)NCCCl)CC(Br)C1OC(C)=O (single isomer, unassigned) [Compound 6]																					LD50 [1]: 2205.8 mg/kg; LD50 [2]: 307.1 mg/kg
CC(=O)OCC1OC(OP(=O)(O)N(CCCl)CCCl)CC(Br)C1OC(C)=O (centres unmarked) [Compound 9]	2140	307																			
COc1cc(C2c3cc4c(cc3C(C3OC(COC(C)=O)C(OC(C)=O)CC3Br)C3COC(=O)C23)OCO4)cc(OC)c1O (centres unmarked) [Compound 14]	1970	300	good inhibitive effect; also recorded: significant effect	good inhibitive effect; also recorded: significant effect	good inhibitive effect; also recorded: significant effect	good inhibitive effect; also recorded: significant effect	good inhibitive effect; also recorded: significant effect	good inhibitive effect; also recorded: significant effect	76.3	0.6	76.2	0.6	72.3	0.8	76.2	0.6	71.9	0.7	75.2	0.3	
